Data from patent US20100082097A1, “Article Containing Segregated Biguanide and Lewis Acid” (priority 2008, published 2010).

Tests used:
Type in all cases: physicochemical
[1] = Brilliant Green-Chlorhexidine formulation in THF/Methanol solvent mixture, observation of solution; settings: with BG, room temperature
Description: 1.04 g Tecoflex 60D and 3.28 g Tecoflex 93A in 65 g were added in a glass jar containing 65 g of Tetrahydrofuran and stirred for four (4) hours at 45° C. Once all resin solids have dissolved, 23 g methanol added into the mixture and stirred for one (1) hour. 2.939 g chlorhexidine diacetate (CHA) was added into the solution mixture and stirred overnight at room temperature. Different Brilliant green (BG) concentrations (0.1 wt %-1.0 wt %) were added per the Table 4 below to an aliquot of the polymer-CHA solution and stirred until Brilliant Green dissolved:
Table 5 below lists different formulations of BG and CHA.

[2] = Brilliant Green-Chlorhexidine formulation in DMF/THF solvent mixture, observation of solution; settings: 40/60 THF/DMF, with BG, room temperature
Description: In this experiment 40/60 THF/DMF solvent mixture was used instead of THF/Methanol from Example 17. Different Brilliant green (BG) concentrations (0.1 wt %-1.0 wt %) were added per the Table 5 below to an aliquot of the polymer-CHA solution (in Example 17) and stirred until Brilliant Green dissolved: […]

[3] = CHA stability in polyurethane films containing no GV (HPLC); settings: vacuum dried and humidified films, 25, 35, 45, 55° C., 20 day incubation
Description: (§1) Degradation is reported in the following examples as measured by HPLC as peak area of the degradant peak divided by the total peak area of the chlorhexidine peak and the degradant peak (i.e. Peak Areadegradant/[Peak Areadegradant+Peak Areachlorhexidine]*100). The peak areas are determined from integration of chromatograms.
(§2) A high pressure liquid chromatography (HPLC) analytical method was developed to quantify Gentian violet and chlorhexidine. Both compounds have ultraviolet or visible wavelength absorbance, and so were characterized using a UV-Vis diode array detector. Chlorhexidine and Gentian violet are identified by retention times versus a set of external standards. The external standards also form a calibration curve that is used to quantify the chlorhexidine and Gentian violet content in samples. The method is summarized as follows:
(§3) The sample preparation method, prior to HPLC analysis, is summarized as follows: samples were placed in centrifuge tubes, to which a volume of tetrahydrofuran (THF) was added (according to cited protocols or per examples). The tubes were vortexed until the sample was completely dissolved. […]
Samples were analyzed post air drying and post 20 day incubation. […]

[4] = CHA stability in polyurethane films after ethylene oxide (ETO) sterilization; settings: polyurethane films containing only CHA
Description: as §1, §2
as §3, with “dissolved. For samples used as medical device coatings where a polymer was also present, a volume of deionized water was then added and the tubes were again vortexed for 10 minutes to precipitate the any polymer in the sample.” for “dissolved.”

[5] = GV stability in polyurethane films containing no CHA (HPLC)
Source text: as §2
The sample preparation method, prior to HPLC analysis, is summarized as follows: samples were placed in centrifuge tubes, to which a volume of tetrahydrofuran (THF) was added (according to cited protocols or per examples). The tubes were vortexed until the sample was completely dissolved. For samples used as medical device coatings where a polymer was also present, a volume of deionized water was then added and the tubes were again vortexed for 10 minutes to precipitate the any polymer in the sample. The tubes were then centrifuged for 10 minutes at 4000 RPM to spin the polymer down out of the solution. A small amount of supernatant was transferred to an HPLC vial for analysis.
Polyurethane films, used in the studies described in examples 4-6 and 9-11, were prepared as follows: 500 g of coating solution was prepared by dissolving 3.74% (w/w) Tecoflex 93A resin and 1.17% (w/w) Tecoflex 60D resin in a 74/26% mixture of THF/Methanol. The mixture was stirred until all of the resin was completely dissolved. 3.07% (w/w) chlorhexidine diacetate (CHA) was then added to the coating solution. Solutions containing different concentrations of GV were made by adding 0.1, 0.2, 0.4, 0.6, 0.8 or 1.0% (w/w) GV to 50 g aliquots of the CHA containing coating solution (or resin only solution in the case of GV only coating solution). 0.5 g of the CHA only, GV only, or 0.1-1.0% GV/CHA solutions was added to the bottom of a 30 mL glass vial and allowed to dry under ambient conditions overnight to evaporate the solvent and cast films in the vials. Vacuum dried samples were prepared by further drying the film containing vials at 25° C. under 30 in, Hg for 48 hours. Humidified samples were prepared by adding 75 μL of deionized water to the air dried samples and capping for the duration of the studies.
Gentian violet only films were prepared according to example 2. Half of the vials were then spiked with 75 μL of deionized water and capped to create a 100% humidity environment, while the other half were vacuum dried ([…]) at 25° C. for 48 hours. The vials were then incubated in an oven at 25° C., 35° C., 45° C., and 55° C. for 20 days.
Samples were analyzed post air drying and post 20 day incubation. Sample analysis was performed using the method in Example 1.
Peak area ratios for pararosaniline chlorides are shown in Table 3 at different temperatures for 20 days. The peak area ratios for each temperature are calculated as follows: (Individual peak area)/Σ(individual peak)×100%. The variations are within the limits of experimental error further confirming the stability of GV in polyurethane films containing only GV.

Structure (SMILES) | stirring time after which chlorhexidine diacetate precipitated [1] [min] | stirring time after which chlorhexidine diacetate precipitated [2] [min] | degradation peaks in the chromatograms [3] | stability when ETO sterilized [4] | degradation products detected in the chromatograms ([5]; vacuum dried and humidified GV only films, 25-55° C., 20 days) | Peak area ratio for pararosaniline chlorides ([5]; 0 day control) [%] | Peak area ratio for pararosaniline chlorides ([5]; 25° C. at day 20) [%] | Peak area ratio for pararosaniline chlorides ([5]; 35° C. at day 20) [%] | Peak area ratio for pararosaniline chlorides ([5]; 45° C. at day 20) [%] | Peak area ratio for pararosaniline chlorides ([5]; 55° C. at day 20) [%]
CC(=O)O.CC(=O)O.NC(=N\CCCCCC/N=C(N)/N=C(\N)Nc1ccc(Cl)cc1)/N=C(\N)Nc1ccc(Cl)cc1 [CHA, chlorhexidine diacetate] | 30 | 30 | no degradation peaks | stable when sterilized | – | – | – | – | – | –
CN(C)c1ccc(C(=C2C=CC(=[N+](C)C)C=C2)c2ccc(N(C)C)cc2)cc1 [GV, hexa-methyl pararosaniline chloride, reference compound] | – | – | – | – | no degradation products were detected | – | – | – | – | –
CN(C)c1ccc(C(=C2C=CC(=[N+](C)C)C=C2)c2ccc(N(C)C)cc2)cc1.[Cl-] [Hexamethyl, hexamethylpararosaniline chloride] | – | – | – | – | – | 42 | 43 | 44 | 42 | 45

Further lines, results first:

stirring time after which chlorhexidine diacetate precipitated [1] [min] | stirring time after which chlorhexidine diacetate precipitated [2] [min] | degradation peaks in the chromatograms [3] | stability when ETO sterilized [4] | degradation products detected in the chromatograms ([5]; vacuum dried and humidified GV only films, 25-55° C., 20 days) | Peak area ratio for pararosaniline chlorides ([5]; 0 day control) [%] | Peak area ratio for pararosaniline chlorides ([5]; 25° C. at day 20) [%] | Peak area ratio for pararosaniline chlorides ([5]; 35° C. at day 20) [%] | Peak area ratio for pararosaniline chlorides ([5]; 45° C. at day 20) [%] | Peak area ratio for pararosaniline chlorides ([5]; 55° C. at day 20) [%] | Structure (SMILES)
– | – | – | – | – | 44 | 43 | 43 | 44 | 43 | CN=C1C=CC(=C(c2ccc(N(C)C)cc2)c2ccc(N(C)C)cc2)C=C1.Cl [Pentamethyl, pentamethylpararosaniline chloride]
– | – | – | – | – | 14 | 14 | 13 | 14 | 12 | CN(C)c1ccc(C(=C2C=CC(=[N+](C)C)C=C2)c2ccc(N)cc2)cc1.[Cl-] [Tetramethyl, tetramethylpararosaniline chloride]
